The values below come from US20170253601A1, “Substituted Pyrrolidine Compounds” (EPIZYME, INC., priority 2014, published 2017).

SMILES strings stand for the structures.

T1 sequence (Q9NRG4 whole entry): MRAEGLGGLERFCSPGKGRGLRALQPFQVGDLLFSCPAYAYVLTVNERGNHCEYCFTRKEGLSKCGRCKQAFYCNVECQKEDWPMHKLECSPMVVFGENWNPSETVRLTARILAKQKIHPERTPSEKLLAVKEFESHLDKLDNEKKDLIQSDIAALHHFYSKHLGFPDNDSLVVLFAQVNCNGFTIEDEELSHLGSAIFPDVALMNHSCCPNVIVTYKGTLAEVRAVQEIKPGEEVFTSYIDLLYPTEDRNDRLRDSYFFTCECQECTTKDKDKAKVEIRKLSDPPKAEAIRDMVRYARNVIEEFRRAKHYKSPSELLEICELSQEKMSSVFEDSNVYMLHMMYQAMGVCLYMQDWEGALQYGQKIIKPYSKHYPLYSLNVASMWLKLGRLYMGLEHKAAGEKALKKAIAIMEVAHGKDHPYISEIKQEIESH

One assay concerns the target T1, SMYD2 (Homo sapiens, UniProt Q9NRG4).
T1 construct: Full length SMYD2 (NP 064582.2) was cloned; His6 (N, cleaved yes); FLAG (N); made in house; host or cells: Sf9 insect cells
Briefly: SMYD2 Biochemical Assay (3H-SAM, biotinylated peptide substrate, Flashplate). The following applies: IC50 values are an average of n = 1 to n = 50; read-out: SMYD2 Biochem IC50 (μM)*. In short, it runs like this: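 Methyltransferase activity tracked as 3H transfer from 10 nM 3H-SAM to 60 nM biotinylated peptide, counted after streptavidin Flashplate capture and normalised to DMSO and 1000 uM SAH controls. Enzyme: 1.5 nM full-length Sf9-expressed SMYD2, 30 min compound pre-incubation at room temperature, in Bicine pH 7.6 buffer with 2% DMSO; reactions quenched with 600 uM unlabelled SAM; IC50 from 3- or 4-parameter fit.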
On to `C[C@@H]1CN(CC2CCNCC2)C[C@H]1NC(=O)c1cc(C2CC2)on1` (racemic) [compound 256, (±)-trans-5-cyclopropyl-N-[4-methyl-1-(piperidin-4-ylmethyl)pyrrolidin-3-yl]-1,2-oxazole-3-carboxamide], for which the IC50 – broadly, the concentration at which inhibition is half-maximal – is above 50 µM.

As for `CC(C)CCN1C[C@@H](C)[C@H](NC(=O)c2cc(C3CC3)on2)C1` (racemic) [compound 143, (±)-trans-5-cyclopropyl-N-[4-methyl-1-(3-methylbutyl)pyrrolidin-3-yl]-1,2-oxazole-3-carboxamide], the IC50 is above 50 µM. Turning to `C[C@@H]1CN(CCC2CCN(C(=O)OC(C)(C)C)CC2)C[C@H]1NC(=O)c1cc(C2CC2)on1` (racemic) [compound 132], the IC50 was above 50 µM.

With `C[C@@H]1CN(c2ccncn2)C[C@H]1NC(=O)c1cc(C2CC2)on1` (racemic) [compound 316, (±)-trans-5-cyclopropyl-N-[4-methyl-1-(pyrimidin-4-yl)pyrrolidin-3-yl]-1,2-oxazole-3-carboxamide], the IC50 is above 50 µM. Regarding `C[C@H]1CN(Cc2ccc(Cl)cc2Cl)C[C@H]1NC(=O)c1cc(C2CC2)on1` (racemic) [compound 321, (±)-cis-5-cyclopropyl-N-{1-[(2,4-dichloro-phenyl)methyl]-4-methylpyrrolidin-3-yl}-1,2-oxazole-3-carboxamide], the IC50 was found to be 4.64 µM. Take `CC(C)N1C[C@@H](C)[C@@H](NC(=O)c2cc(C3CC3)on2)C1` [compound 234, 5-cyclopropyl-N-[(3R,4R)-4-methyl-1-(propan-2-yl)pyrrolidin-3-yl]-1,2-oxazole-3-carboxamide]: the IC50 turned out to be 0.682 µM. In the case of `C[C@H]1CN(Cc2cccnc2)C[C@H]1NC(=O)c1cc(C2CC2)on1` (racemic) [compound 120, (±)-cis-5-cyclopropyl-N-[4-methyl-1-(pyridin-3-ylmethyl)pyrrolidin-3-yl]-1,2-oxazole-3-carboxamide], the IC50 was determined as 10.6 µM. The same measure, in the same setting: then `C[C@H]1CN(Cc2c(Cl)cccc2Cl)C[C@H]1NC(=O)c1cc(C2CC2)on1` (racemic) [compound 322, (±)-cis-5-cyclopropyl-N-{1-[(2,6-dichloro-phenyl)methyl]-4-methylpyrrolidin-3-yl}-1,2-oxazole-3-carboxamide], with above 50 µM. On the same count and under the same terms, then `CC(C)N1C[C@@H](NC(=O)c2cc(C3CC3)on2)C[C@H]1COCC#Cc1ccccc1` (stereo in doubt) [compound 240, (±)-cis-5-cyclopropyl-N-[(5-{[(3-phenylprop-2-yn-1-yl)oxy]methyl}-1-(propan-2-yl)pyrrolidin-3-yl]-1,2-oxazole-3-carboxamide], with above 50 µM. Consider `COc1ccc(CN2C[C@@H](C)[C@H](NC(=O)c3cc(C4CC4)on3)C2)c(OC)c1` (racemic) [compound 134, (±)-trans--cyclopropyl-N-[1-[(2,4-dimethoxy-phenyl)methyl]-4-methylpyrrolidin-3-yl]-1,2-oxazole-3-carboxamide], for which the IC50 was above 50 µM.

Take `C[C@@H]1CN(Cc2cccc3c2OCO3)C[C@H]1NC(=O)c1cc(C2CC2)on1` (racemic) [compound 135, (±)-trans-N-[1-(2H-1,3-benzodioxol-4-ylmethyl)-4-methyl-pyrrolidin-3-yl]-5-cyclopropyl-1,2-oxazole-3-carboxamide]: the IC50 is above 50 µM. Still for that read-out and setting: for `CC[C@H]1CN(C(C)C)C[C@@H]1NC(=O)c1cc(C2CC2)on1` (racemic) [compound 199, (±)-trans-5-cyclopropyl-N-[4-ethyl-1-(propan-2-yl)pyrrolidin-3-yl]-1,2-oxazole-3-carboxamide] the value was 25.7 µM; for `C[C@@H]1CN(CC(C)(C)C)C[C@H]1NC(=O)c1cc(C2CC2)on1` (racemic) [compound 130, (±)-trans-5-cyclopropyl-N-[(3S,4R)-1-(2,2-dimethylpropyl)-4-methylpyrrolidin-3-yl]-1,2-oxazole-3-carboxamide], above 50 µM. For `C[C@H]1CN(CC(=O)N2CCNCC2)C[C@H]1NC(=O)c1cc(C2CC2)on1` (racemic) [compound 304, (±)-cis-5-cyclopropyl-N-{4-methyl-1-[2-oxo-2-(piperazin-1-yl)ethyl]pyrrolidin-3-yl}-1,2-oxazole-3-carboxamide], the IC50 is above 50 µM. The same measure, in the same setting: for `C[C@H]1CN(Cc2c(Br)cncc2Br)C[C@H]1NC(=O)c1cc(C2CC2)on1` (racemic) [compound 231, (±)-cis-5-cyclopropyl-N-[1-[(3,5-dibromo-pyridin-4-yl)methyl]-4-methylpyrrolidin-3-yl]-1,2-oxazole-3-carboxamide] the value was above 50 µM; for `CC(C)N1C[C@H](NC(=O)c2cc(C3CC3)on2)C[C@H]1COCC#CC1CCCCC1` (stereo in doubt) [compound 244, (±)-trans-N-[5-{[(3-cyclo-hexylprop-2-yn-1-yl)oxy]methyl}-1-(propan-2-yl)pyrrolidin-3-yl]-5-cyclopropyl-1,2-oxazole-3-carboxamide], above 50 µM. As for `C[C@H]1CN(Cc2ccnc3ccccc23)C[C@H]1NC(=O)c1cc(C2CC2)on1` (racemic) [compound 197, (±)-cis-5-cyclopropyl-N-[4-methyl-1-(quinolin-4-ylmethyl)pyrrolidin-3-yl]-1,2-oxazole-3-carboxamide], the IC50 is above 50 µM. Take `CC(C)c1cc(C(=O)N[C@H]2C[C@@H](CNC(=O)c3ccccc3)N(C3CC3)C2)no1` (racemic) [compound 227, (±)-cis-N-[1-cyclo-propyl-5-[(phenyl-formamido)methyl]pyrrolidin-3-yl]-5-(propan-2-yl)-1,2-oxazole-3-carboxamide]: the IC50 was above 50 µM.

The assay is the same for the next values; noted with them: Table 2; average of n = 1 to n = 50; read-out: SMYD2 Biochem IC50.
Turning to `C[C@H]1C[C@@H](NC(=O)c2cc(C3CC3)on2)CN1C` (racemic) [compound 64, (±)-cis-5-cyclopropyl-N-(1,5-dimethylpyrrolidin-3-yl)isoxazole-3-carboxamide], the IC50 is above 50 µM. For the compound `C[C@@H]1CN(C2CCNCC2)C[C@@H]1NC(=O)c1cc(C2CC2)on1` (racemic) [compound 81, (±)-cis-5-cyclopropyl-N-(4-methyl-1-(piperidin-4-yl)pyrrolidin-3-yl)isoxazole-3-carboxamide], the IC50 was above 50 µM. The same measure, in the same setting: then `C[C@@H]1CN(C(=O)CC2CCNCC2)C[C@@H]1NC(=O)c1cc(C2CC2)on1` (racemic) [compound 71, (±)-cis-5-cyclopropyl-N-(4-methyl-1-(2-(piperidin-4-yl)acetyl)pyrrolidin-3-yl)isoxazole-3-carboxamide], with above 50 µM; and `C[C@@H]1CN(C2CCOCC2)C[C@@H]1NC(=O)c1cc(C2CC2)on1` (racemic) [compound 73, (±)-cis-5-cyclopropyl-N-(4-methyl-1-(tetrahydro-2H-pyran-4-yl)pyrrolidin-3-yl)isoxazole-3-carboxamide], with 40.7 µM; and `C[C@@H]1CN(C2CCCC2)C[C@H]1NC(=O)c1cc(C2CC2)on1` (racemic) [compound 99, (±)-trans-N-(1-cyclopentyl-4-methylpyrrolidin-3-yl)-5-cyclopropylisoxazole-3-carboxamide], with 48.7 µM. On the same count and under the same terms, for `C[C@@H]1CN(S(=O)(=O)C2CCNCC2)C[C@@H]1NC(=O)c1cc(C2CC2)on1` (racemic) [compound 67, (±)-cis 5-cyclopropyl-N-(4-methyl-1-(piperidin-4-ylsulfonyl)pyrrolidin-3-yl)isoxazole-3-carboxamide] the value was above 50 µM.
